Experimental data: ChEMBL document CHEMBL1201862, “PubChem BioAssay data set” (2004)
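A five-concentration, 48-hour dose response in 96-well plates underlies each endpoint, interpolated linearly between surrounding concentrations. GI50: concentration for 50% inhibition of growth.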 The source made the active and inactive calls. Cut-off read from the data, not from the text of the source: active = GI50 up to about 1.1 µM and inactive = higher. Peptide text beside a SMILES is read from it. * marks the point of attachment. Cbz = O=C(OCc1ccccc1)*

What was measured:
Assay in all cases: DTP human tumour cell line panel, 48 h
SK-MEL-5 = system: SK-MEL-5
OVCAR-5 = system: OVCAR-5
HL-60 = system: HL-60
Hs-578T = system: Hs-578T
SNB-75 = system: SNB-75
SR = system: SR
U-251 = system: U-251
UACC-62 = system: UACC-62
RXF 393 = system: RXF 393
SW-620 = system: SW-620
SN12C = system: SN12C
CCRF-CEM = system: CCRF-CEM
NCI-H23 = system: NCI-H23
MDA-MB-231 = system: MDA-MB-231
SK-MEL-2 = system: SK-MEL-2
HCC 2998 = system: HCC 2998
OVCAR-4 = system: OVCAR-4
Malme-3M = system: Malme-3M
NCI-H226 = system: NCI-H226
HCT-15 = system: HCT-15

SMILES	GI50 (SK-MEL-5)	GI50 (OVCAR-5)	GI50 (HL-60)	GI50 (Hs-578T)	GI50 (SNB-75)	GI50 (SR)	GI50 (U-251)	GI50 (UACC-62)	GI50 (RXF 393)	GI50 (SW-620)	GI50 (SN12C)	GI50 (CCRF-CEM)	GI50 (NCI-H23)	GI50 (MDA-MB-231)	GI50 (SK-MEL-2)	GI50 (HCC 2998)	GI50 (OVCAR-4)	GI50 (Malme-3M)	GI50 (NCI-H226)	GI50 (HCT-15)
NCC(=O)C(O)C(O)C(O)CO (configuration not stated)	> 100 µM (inactive)	> 100 µM (inactive)	> 100 µM (inactive)	> 100 µM (inactive)	65.9 µM (inactive)	> 100 µM (inactive)	> 100 µM (inactive)	> 100 µM (inactive)	> 100 µM (inactive)	> 100 µM (inactive)	> 100 µM (inactive)	> 100 µM (inactive)	> 100 µM (inactive)	> 100 µM (inactive)	> 100 µM (inactive)	> 100 µM (inactive)	> 100 µM (inactive)	> 100 µM (inactive)	> 100 µM (inactive)	> 100 µM
C/C(=N\Nc1nc2ccccc2s1)c1cc(C)ncn1	0.459 µM (active)	1.27 µM (inactive)	0.0776 µM (active)	0.738 µM (active)	1.34 µM (inactive)	0.259 µM (active)	1 µM (active)	0.979 µM (active)	3.02 µM (inactive)	0.352 µM (active)	0.392 µM (active)	0.0929 µM (active)	0.741 µM (active)	0.286 µM (active)	3.78 µM (inactive)	1.72 µM (inactive)	1.7 µM (inactive)	0.372 µM (active)	0.427 µM (active)	0.394 µM
NC1(C(=O)OCc2ccccc2)CCCC1	16.6 µM (inactive)	28.4 µM (inactive)	0.21 µM (active)	23.7 µM (inactive)	18 µM (inactive)	33.5 µM (inactive)	16.3 µM (inactive)	15.9 µM (inactive)	17.4 µM (inactive)	36.6 µM (inactive)	25.1 µM (inactive)	11.4 µM (inactive)	17.5 µM (inactive)	15.8 µM (inactive)	17.9 µM (inactive)	28 µM (inactive)	15.1 µM (inactive)	16.5 µM (inactive)	30.1 µM (inactive)	22.9 µM
CCOC(=O)C(C)NC(=O)C(C)NC(=O)C(C)NC(=O)C(C)NC(=O)C(C)NC(=O)C(C)NC(=O)C(C)NC(=O)OCc1ccccc1 (configuration not stated) (Cbz-AAAAAAA-OEt; configuration not given here)	> 100 µM (inactive)	> 100 µM (inactive)	> 100 µM (inactive)	> 100 µM (inactive)	> 100 µM (inactive)	> 100 µM (inactive)	> 100 µM (inactive)	> 100 µM (inactive)	> 100 µM (inactive)	> 100 µM (inactive)	> 100 µM (inactive)		> 100 µM (inactive)	> 100 µM (inactive)		> 100 µM (inactive)	> 100 µM (inactive)	> 100 µM (inactive)	> 100 µM (inactive)	> 100 µM
O=c1oc2cccnc2n1CCN1CCN(c2ccc(Oc3ccccc3)cc2)CC1	10.2 µM (inactive)	> 100 µM (inactive)	8.04 µM (inactive)	> 100 µM (inactive)	11.1 µM (inactive)	8.71 µM (inactive)	56.9 µM (inactive)		> 100 µM (inactive)	> 100 µM (inactive)		7.21 µM (inactive)	> 100 µM (inactive)	> 100 µM (inactive)	> 100 µM (inactive)	52.8 µM (inactive)	15.7 µM (inactive)	41.6 µM (inactive)		90.8 µM
O=C(Nc1ccc(Br)cc1)c1c(-c2ccccc2)c2ccc(O)cc2oc1=O	> 10 µM (inactive)	> 10 µM (inactive)	> 10 µM (inactive)	> 10 µM (inactive)	> 10 µM (inactive)	> 10 µM (inactive)	> 10 µM (inactive)		> 10 µM (inactive)	> 10 µM (inactive)	> 10 µM (inactive)	> 10 µM (inactive)	> 10 µM (inactive)	> 10 µM (inactive)	> 10 µM (inactive)	> 10 µM (inactive)	> 10 µM (inactive)	> 10 µM (inactive)	> 10 µM (inactive)	> 10 µM
CCCCOP(=O)(OCCCC)C(NS(=O)(=O)c1ccccc1)(C(=O)OCC)C(F)(F)F (configuration not stated)	18.1 µM (inactive)	31 µM (inactive)	19.3 µM (inactive)	54.8 µM (inactive)	27.6 µM (inactive)	26.7 µM (inactive)	34.8 µM (inactive)	43.9 µM (inactive)	26.7 µM (inactive)		29.1 µM (inactive)	27.2 µM (inactive)	33.6 µM (inactive)	15.3 µM (inactive)		> 100 µM (inactive)	27.7 µM (inactive)	23.1 µM (inactive)	27.6 µM (inactive)	39.7 µM
